According to ChEMBL document CHEMBL1125129, “Design of potent and selective linear antagonists of vasopressor (V1-receptor) responses to vasopressin” (J Med Chem, 1990):

Assays:
[1] = target: Vasopressin V1 receptor (Rattus norvegicus, UniProt P48974+P30560); assay: pA2 value was determined for Vasopressin V1 receptor antagonistic activity in vivo in anesthetized rats; type: functional, organism-based
[2] = tested on: Rattus norvegicus; assay: pA2 value was determined for antidiuretic V2 antagonistic activity in vivo in anesthetized rats pA2 value was determined for antidiuretic V2 antagonistic activity in vivo in anesthetized rats; type: functional, organism-based; conditions: Urine, read-out: pA2 (converted)
[3] = target: Vasopressin V2 receptor (Rattus norvegicus, UniProt Q00788); assay: Vasopressin V2 receptor antagonistic activity in vivo in anesthetized rats; type: functional, organism-based; conditions: for Kb: read-out: pA2 (converted)
[4] = target: Vasopressin V1 receptor (Rattus norvegicus) (UniProt P48974+P30560); assay: Effective dose was determined for Vasopressin V1 receptor antagonistic activity in vivo in anesthetized rats; type: functional, organism-based
[5] = target: Vasopressin V2 receptor (Rattus norvegicus) (UniProt Q00788); assay: Selectivity ratio of antidiuretic Vasopressin V2 receptor ED /[…] receptor ED; conditions: Urine
[6] = target: Vasopressin V2 receptor (Rattus norvegicus) (UniProt Q00788); assay: Effective dose was determined for Vasopressin V2 receptor antagonistic activity in vivo in anesthetized rats; type: functional, organism-based

Vasopressin V2 receptor, sequence (Q00788 whole entry): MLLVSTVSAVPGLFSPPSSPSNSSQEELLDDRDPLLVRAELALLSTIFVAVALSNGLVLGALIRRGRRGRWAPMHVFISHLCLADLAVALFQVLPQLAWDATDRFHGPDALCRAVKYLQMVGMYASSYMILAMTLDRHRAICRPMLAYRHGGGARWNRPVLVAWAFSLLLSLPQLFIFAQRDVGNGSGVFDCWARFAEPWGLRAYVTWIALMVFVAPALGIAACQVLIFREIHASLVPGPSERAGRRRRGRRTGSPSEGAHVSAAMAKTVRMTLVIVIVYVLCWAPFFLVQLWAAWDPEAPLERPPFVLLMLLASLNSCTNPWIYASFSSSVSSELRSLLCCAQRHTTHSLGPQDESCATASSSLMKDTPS
Vasopressin V2 receptor (Rattus norvegicus), sequence (Q00788 whole entry): as above
Vasopressin V1 receptor (Rattus norvegicus), sequence (P30560 whole entry, looked up): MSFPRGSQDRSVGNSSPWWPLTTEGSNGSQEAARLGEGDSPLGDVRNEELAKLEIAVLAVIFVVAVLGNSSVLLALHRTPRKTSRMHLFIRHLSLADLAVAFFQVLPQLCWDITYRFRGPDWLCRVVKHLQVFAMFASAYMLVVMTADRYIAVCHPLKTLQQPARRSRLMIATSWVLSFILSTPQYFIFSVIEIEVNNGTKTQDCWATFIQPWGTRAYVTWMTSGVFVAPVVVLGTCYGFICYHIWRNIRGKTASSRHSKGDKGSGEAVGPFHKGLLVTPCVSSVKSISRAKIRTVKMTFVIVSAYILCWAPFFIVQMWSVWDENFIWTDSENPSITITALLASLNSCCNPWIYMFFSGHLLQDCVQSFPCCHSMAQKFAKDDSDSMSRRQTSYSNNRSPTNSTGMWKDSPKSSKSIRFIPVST
Vasopressin V1 receptor (Rattus norvegicus), sequence (P48974 whole entry, looked up): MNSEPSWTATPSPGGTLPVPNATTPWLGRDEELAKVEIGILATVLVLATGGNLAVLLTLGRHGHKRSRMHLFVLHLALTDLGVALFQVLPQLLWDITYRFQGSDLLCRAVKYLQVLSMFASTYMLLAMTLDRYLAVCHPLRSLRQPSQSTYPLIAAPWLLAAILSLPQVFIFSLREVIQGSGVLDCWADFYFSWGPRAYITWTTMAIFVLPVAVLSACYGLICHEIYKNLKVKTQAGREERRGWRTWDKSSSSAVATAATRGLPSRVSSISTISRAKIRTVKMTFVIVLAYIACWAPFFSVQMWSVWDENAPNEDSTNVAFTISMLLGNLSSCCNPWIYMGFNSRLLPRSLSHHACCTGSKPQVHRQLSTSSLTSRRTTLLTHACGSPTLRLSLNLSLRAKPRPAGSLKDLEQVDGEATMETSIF

Compound | pA2 [1] | Kb [2] [nM] | Kb [3] [nM] | further results
COc1ccc(C[C@@H](NC(=O)Cc2ccccc2)C(=O)N[C@@H](Cc2ccccc2)C(=O)N[C@@H](CCC(N)=O)C(=O)N[C@@H](CC(N)=O)C(=O)N[C@@H](CCCCN)C(=O)N2CCC[C@H]2C(=O)N[C@@H](CCCN=C(N)N)C(N)=O)cc1 | 8.93 | > 316 | – | –
NCCCC[C@H](NC(=O)[C@H](CC(N)=O)NC(=O)[C@H](CCC(N)=O)NC(=O)[C@H](Cc1ccccc1)NC(=O)[C@@H](Cc1ccc(O)cc1)NC(=O)Cc1ccccc1)C(=O)N1CCC[C@H]1C(=O)N[C@@H](CCCN=C(N)N)C(N)=O | 8.91 | – | 63.1 | –
CCOc1ccc(C[C@@H](NC(=O)Cc2ccccc2)C(=O)N[C@@H](Cc2ccccc2)C(=O)N[C@@H](CCC(N)=O)C(=O)N[C@@H](CC(N)=O)C(=O)N[C@@H](CCCCN)C(=O)N2CCC[C@H]2C(=O)N[C@@H](CCCN=C(N)N)C(N)=O)cc1 | 9.05 | 501 | – | –
CCOc1ccc(C[C@@H](NC(=O)CC(C)(C)C)C(=O)N[C@@H](Cc2ccccc2)C(=O)N[C@@H](CCC(N)=O)C(=O)N[C@@H](CC(N)=O)C(=O)N[C@@H](CCCCN)C(=O)N2CCC[C@H]2C(=O)N[C@@H](CCCN=C(N)N)C(N)=O)cc1 | 8.4 | – | 6310 | –
CCOc1ccc(C[C@@H](NC(=O)CC23CC4CC(CC(C4)C2)C3)C(=O)N[C@@H](Cc2ccccc2)C(=O)N[C@H](C(=O)N[C@@H](CC(N)=O)C(=O)N[C@@H](CCCN=C(N)N)C(=O)N(C)[C@@H](C)C(=O)N[C@@H](CCCN=C(N)N)C(N)=O)C(C)C)cc1 | 8.28 | 17 | – | Effective dose [4]: 0.37 nM/kg; Ratio [5]: 3.2; Effective dose [6]: 1.2 nM/kg
CCOc1ccc(C[C@@H](NC(=O)Cc2ccccc2)C(=O)N[C@@H](Cc2ccccc2)C(=O)N[C@H](C(=O)N[C@@H](CC(N)=O)C(=O)NCCCC(=O)N2CCC[C@H]2C(=O)N[C@@H](CCCN=C(N)N)C(=O)N[C@@H](CCCN=C(N)N)C(N)=O)C(C)C)cc1 | 8.42 | – | 10.2 | –
CCOc1ccc(C[C@@H](NC(=O)Cc2ccccc2)C(=O)N[C@@H](Cc2ccccc2)C(=O)N[C@H](C(=O)N[C@@H](CC(N)=O)C(=O)N[C@@H](CCCN)C(=O)N2CCC[C@H]2C(=O)N[C@@H](CCCN=C(N)N)C(=O)N[C@@H](CCCN=C(N)N)C(N)=O)C(C)C)cc1 | 8.39 | – | ~58.9 | –
CCOc1ccc(C[C@@H](NC(=O)CC(C)(C)C)C(=O)N[C@@H](Cc2ccccc2)C(=O)N[C@H](C(=O)N[C@@H](CC(N)=O)C(=O)NCCCC(=O)N2CCC[C@H]2C(=O)N[C@@H](CCCN=C(N)N)C(=O)N[C@@H](CCCN=C(N)N)C(N)=O)C(C)C)cc1 | 7.99 | – | 12.3 | –
CCOc1ccc(C[C@@H](NC(=O)CC(C)(C)C)C(=O)N[C@@H](Cc2ccccc2)C(=O)N[C@H](C(=O)N[C@@H](CC(N)=O)C(=O)N[C@@H](CCCCN)C(=O)N2CCC[C@H]2C(=O)N[C@@H](CCCN=C(N)N)C(N)=O)C(C)C)cc1 | 8.63 | 100 | – | –
CC(C)[C@H](NC(=O)[C@H](Cc1ccccc1)NC(=O)[C@@H](Cc1ccc(O)cc1)NC(=O)CC12CC3CC(CC(C3)C1)C2)C(=O)N[C@@H](CC(N)=O)C(=O)N[C@@H](CCCN=C(N)N)C(=O)N1CCC[C@H]1C(=O)N[C@@H](CCCN=C(N)N)C(=O)N[C@@H](CCCN=C(N)N)C(N)=O | 8.22 | – | 21.9 | –
CCOc1ccc(C[C@@H](NC(=O)CC23CC4CC(CC(C4)C2)C3)C(=O)N[C@@H](Cc2ccccc2)C(=O)N[C@H](C(=O)N[C@@H](CC(N)=O)C(=O)N[C@@H](CCCN=C(N)N)C(=O)N2CCC[C@H]2C(=O)N[C@@H](CCCN=C(N)N)C(=O)N[C@@H](CCCN=C(N)N)C(N)=O)C(C)C)cc1 | 8.13 | 10.5 | – | –
CCOc1ccc(C[C@H]2NC(=O)CC3(CCCCC3)SSC[C@@H](C(=O)N3CCC[C@H]3C(=O)N[C@@H](CCCN=C(N)N)C(N)=O)NC(=O)[C@H](CC(N)=O)NC(=O)[C@H](C(C)C)NC(=O)[C@H](Cc3ccccc3)NC2=O)cc1 | 8.17 | 20.4 | – | –
COc1ccc(C[C@@H](NC(=O)Cc2ccccc2)C(=O)N[C@@H](Cc2ccccc2)C(=O)N[C@H](C(=O)N[C@@H](CC(N)=O)C(=O)N[C@@H](CCCCN)C(=O)N2CCC[C@H]2C(=O)N[C@@H](CCCN=C(N)N)C(N)=O)C(C)C)cc1 | 8.61 | – | 100 | –
CCOc1ccc(C[C@@H](NC(=O)CC23CC4CC(CC(C4)C2)C3)C(=O)N[C@@H](Cc2ccccc2)C(=O)N[C@H](C(=O)N[C@@H](CC(N)=O)C(=O)N[C@@H](CCCCN)C(=O)N2CCC[C@H]2C(=O)N[C@@H](CCCN=C(N)N)C(=O)N[C@@H](CCCN=C(N)N)C(N)=O)C(C)C)cc1 | 8.14 | – | 20 | –
CCOc1ccc(C[C@@H](NC(=O)CC23CC4CC(CC(C4)C2)C3)C(=O)N[C@@H](Cc2ccccc2)C(=O)N[C@H](C(=O)N[C@@H](CC(N)=O)C(=O)N[C@@H](CCCN=C(N)N)C(=O)N2CCC[C@H]2C(=O)N[C@@H](CCCN=C(N)N)C(N)=O)C(C)C)cc1 | 8.01 | 18.6 | – | –
CCOc1ccc(C[C@@H](NC(=O)CC23C[C@H]4C[C@@H](C2)C[C@@H](C3)C4)C(=O)N[C@@H](Cc2ccccc2)C(=O)N[C@H](C(=O)N[C@@H](CC(N)=O)C(=O)NCCCC(=O)N2CCC[C@H]2C(=O)N[C@@H](CCCN=C(N)N)C(=O)N[C@@H](CCCN=C(N)N)C(N)=O)C(C)C)cc1 | 7.75 | – | 7.76 | –
CCOc1ccc(C[C@@H](NC(=O)Cc2ccccc2)C(=O)N[C@@H](Cc2ccccc2)C(=O)N[C@H](C(=O)N[C@@H](CC(N)=O)C(=O)N[C@@H](CCCCN)C(=O)N2CCC[C@H]2C(=O)N[C@@H](CCCN=C(N)N)C(=O)N[C@@H](CCCN=C(N)N)C(N)=O)C(C)C)cc1 | 8.47 | ~141 | – | –
CCOc1ccc(C[C@@H](NC(=O)CC23CC4CC(CC(C4)C2)C3)C(=O)N[C@@H](Cc2ccccc2)C(=O)N[C@H](C(=O)N[C@@H](CC(N)=O)C(=O)N[C@@H](CCCN)C(=O)N2CCC[C@H]2C(=O)N[C@@H](CCCN=C(N)N)C(=O)N[C@@H](CCCN=C(N)N)C(N)=O)C(C)C)cc1 | 7.64 | ~12.6 | – | –
CCOc1ccc(C[C@@H](NC(=O)CC23CC4CC(CC(C4)C2)C3)C(=O)N[C@@H](Cc2ccccc2)C(=O)N[C@H](C(=O)N[C@@H](CC(N)=O)C(=O)N[C@@H](CCCCN)C(=O)N2CCC[C@H]2C(=O)N[C@@H](CCCN=C(N)N)C(N)=O)C(C)C)cc1 | 8.02 | – | 15.5 | –
COc1ccc(C[C@@H](NC(=O)Cc2ccccc2)C(=O)N[C@@H](Cc2ccccc2)C(=O)N[C@H](C(=O)N[C@@H](CC(N)=O)C(=O)N[C@@H](CCCCN)C(=O)N2CCC[C@@H]2C(=O)N[C@@H](CCCN=C(N)N)C(N)=O)C(C)C)cc1 | – | – | – | Effective dose [4]: 0.17 nM/kg; Ratio [5]: 35; Effective dose [6]: 6 nM/kg
CCOc1ccc(C[C@@H](NC(=O)CC23C[C@H]4C[C@@H](C2)C[C@@H](C3)C4)C(=O)N[C@@H](Cc2ccccc2)C(=O)N[C@H](C(=O)N[C@@H](CC(N)=O)C(=O)N[C@@H](CC)C(=O)N2CCC[C@H]2C(=O)N[C@@H](CCCN=C(N)N)C(N)=O)C(C)C)cc1 | 7.43 | – | – | pA2 [3]: 7.21
CCOc1ccc(C[C@@H](NC(=O)CC23CC4CC(CC(C4)C2)C3)C(=O)N[C@@H](Cc2ccccc2)C(=O)N[C@H](C(=O)N[C@@H](CC(N)=O)C(=O)N[C@@H](CCCN)C(=O)N2CCC[C@H]2C(=O)N[C@@H](CCCN=C(N)N)C(N)=O)C(C)C)cc1 | 7.33 | 15.5 | – | –
CCOc1ccc(C[C@@H](NC(=O)Cc2ccccc2)C(=O)N[C@@H](Cc2ccccc2)C(=O)N[C@H](C(=O)N[C@@H](CC(N)=O)C(=O)N[C@@H](CCCCN)C(=O)N2CCC[C@H]2C(=O)N[C@@H](CCCN=C(N)N)C(N)=O)C(C)C)cc1 | 8.81 | – | 43.7 | –
CCOc1ccc(C[C@@H](NC(=O)CC(C)(C)C)C(=O)N[C@@H](Cc2ccccc2)C(=O)N[C@H](C(=O)N[C@@H](CC(N)=O)C(=O)N[C@@H](CCCN=C(N)N)C(=O)N(C)[C@@H](C)C(=O)N[C@@H](CCCN=C(N)N)C(N)=O)C(C)C)cc1 | 8.34 | – | 251 | Effective dose [4]: 0.3 nM/kg; Ratio [5]: 53; Effective dose [6]: 16 nM/kg
CCOc1ccc(C[C@@H](NC(=O)CC23CC4CC(CC(C4)C2)C3)C(=O)N[C@@H](Cc2ccccc2)C(=O)N[C@H](C(=O)N[C@@H](CC(N)=O)C(=O)N[C@@H](CCCN=C(N)N)C(=O)N2CCC[C@@H]2C(=O)N[C@@H](CCCN=C(N)N)C(=O)N[C@@H](CCCN=C(N)N)C(N)=O)C(C)C)cc1 | – | – | – | Effective dose [4]: 0.5 nM/kg; Ratio [5]: 1.4; Effective dose [6]: 0.71 nM/kg
